From US8754068B2, “Modified C-3 betulinic acid derivatives as HIV maturation inhibitors” (priority 2010, dated 2014) come the findings set out here.

As a reminder, the EC50 is the concentration at which the effect is half-maximal.

SMILES strings stand for the structures.

This experiment concerns recombinant NL4-3 virus (Renilla luciferase in nef, Gag P373S). Kind of experiment: HIV cell culture assay (luciferase reporter virus in MT-2 cells). In kind it is cell-based. The settings on record: NL43. On the procedure:
HIV cell culture assay—MT-2 cells and 293T cells were obtained from the NIH AIDS Research and Reference Reagent Program. MT-2 cells were propagated in RPMI 1640 media supplemented with 10% heat inactivated fetal bovine serum, […]. The 293T cells were propagated in DMEM media supplemented with 10% heat inactivated fetal bovine serum (FBS), 100 units/ml penicillin G and 100 μg/ml streptomycin. The proviral DNA clone of NL4-3 was obtained from the NIH AIDS Research and Reference Reagent Program. A recombinant NL4-3 virus, in which a section of the nef gene from NL4-3 was replaced with the Renilla luciferase gene, was used as a reference virus. In addition, residue Gag P373 was converted to P373S. Briefly, the recombinant virus was prepared by transfection of the altered proviral clone of NL4-3. Transfections were performed in 293T cells using LipofectAMINE PLUS from Invitrogen (Carlsbad, Calif.), according to manufacturer's instruction. The virus was titered in MT-2 cells using luciferase enzyme activity as a marker. Luciferase was quantitated using the Dual Luciferase kit from Promega (Madison, Wis.), with modifications to the manufacturer's protocol. The diluted Passive Lysis solution was pre-mixed with the re-suspended Luciferase Assay Reagent and the re-suspended Stop & Glo Substrate (2:1:1 ratio). Fifty (50) μL of the mixture was added to each aspirated well on assay plates and luciferase activity was measured immediately on a Wallac TriLux (Perkin-Elmer). Antiviral activities of inhibitors toward the recombinant virus were quantified by measuring luciferase activity in cells infected for 4-5 days with NLRluc recombinants in the presence serial dilutions of the inhibitor. Table 1 is the key for the data in Table 2.
On to `C=C(C)[C@@H]1CC[C@]2(C(=O)O)CC[C@]3(C)[C@H](CC[C@@H]4[C@@]5(C)CC=C(c6ccc(S(C)(=O)=O)cc6)C(C)(C)[C@@H]5CC[C@]43C)[C@@H]12` [Example 4j, (1R,3aS,5aR,5bR,7aR,11aS,11bR,13aR,13bR)-5a,5b,8,8,11a-pentamethyl-9-(4-(methylsulfonyl)phenyl)-1-(prop-1-en-2-yl)-2,3,3a,4,5,5a,5b,6,7,7a,8,11,11a,11b,12,13,13a,13b-octadecahydro-1H-cyclopenta[a]chrysene-3a-carboxylic acid], for which the EC50 is > 1000 nM. Consider `C=C(C)[C@@H]1CC[C@]2(C(=O)O)CC[C@]3(C)[C@H](CC[C@@H]4[C@@]5(C)CC=C(c6cccc(CCC(=O)O)c6)C(C)(C)[C@@H]5CC[C@]43C)[C@@H]12` [Example 4k, (1R,3aS,5aR,5bR,7aR,11aS,11bR,13aR,13bR)-9-(3-(2-carboxyethyl)phenyl)-5a,5b,8,8,11a-pentamethyl-1-(prop-1-en-2-yl)-2,3,3a,4,5,5a,5b,6,7,7a,8,11,11a,11b,12,13,13a,13b-octadecahydro-1H-cyclopenta[a]chrysene-3a-carboxylic acid], for which the EC50 is < 1000 nM.

As for `C=C(C)[C@@H]1CC[C@]2(C(=O)O)CC[C@]3(C)[C@H](CC[C@@H]4[C@@]5(C)CC=C(c6ccccc6CCC(=O)O)C(C)(C)[C@@H]5CC[C@]43C)[C@@H]12` [Example 4l, (1R,3aS,5aR,5bR,7aR,11aS,11bR,13aR,13bR)-9-(2-(2-carboxyethyl)phenyl)-5a,5b,8,8,11a-pentamethyl-1-(prop-1-en-2-yl)-2,3,3a,4,5,5a,5b,6,7,7a,8,11,11a,11b,12,13,13a,13b-octadecahydro-1H-cyclopenta[a]chrysene-3a-carboxylic acid], the EC50 was > 1000 nM. `C=C(C)[C@@H]1CC[C@]2(C(=O)O)CC[C@]3(C)[C@H](CC[C@@H]4[C@@]5(C)CC=C(c6ccc(-c7cnc8ccccc8c7C(=O)O)cc6)C(C)(C)[C@@H]5CC[C@]43C)[C@@H]12` [Example 4m, 3-(4-((1R,3aS,5aR,5bR,7aR,11aS,11bR,13aR,13bR)-3a-carboxy-5a,5b,8,8,11a-pentamethyl-1-(prop-1-en-2-yl)-2,3,3a,4,5,5a,5b,6,7,7a,8,11,11a,11b,12,13,13a,13b-octadecahydro-1H-cyclopenta[a]chrysen-9-yl)phenyl)quinoline-4-carboxylic acid]: the EC50 is > 1000 nM. As for `C=C(C)[C@@H]1CC[C@]2(C(=O)O)CC[C@]3(C)[C@H](CC[C@@H]4[C@@]5(C)CC=C(c6ccc(C(=O)O)s6)C(C)(C)[C@@H]5CC[C@]43C)[C@@H]12` [Example 4n, 5-((1R,3aS,5aR,5bR,7aR,11aS,11bR,13aR,13bR)-3a-carboxy-5a,5b,8,8,11a-pentamethyl-1-(prop-1-en-2-yl)-2,3,3a,4,5,5a,5b,6,7,7a,8,11,11a,11b,12,13,13a,13b-octadecahydro-1H-cyclopenta[a]chrysen-9-yl)thiophene-2-carboxylic acid], the figure is < 1000 nM; as for `C=C(C)[C@@H]1CC[C@]2(C(=O)O)CC[C@]3(C)[C@H](CC[C@@H]4[C@@]5(C)CC=C(c6ccc(C(=O)O)c(Cl)c6)C(C)(C)[C@@H]5CC[C@]43C)[C@@H]12` [Example 4o, (1R,3aS,5aR,5bR,7aR,11aS,11bR,13aR,13bR)-9-(4-carboxy-3-chlorophenyl)-5a,5b,8,8,11a-pentamethyl-1-(prop-1-en-2-yl)-2,3,3a,4,5,5a,5b,6,7,7a,8,11,11a,11b,12,13,13a,13b-octadecahydro-1H-cyclopenta[a]chrysene-3a-carboxylic acid], < 1000 nM; as for `C=C(C)[C@@H]1CC[C@]2(CO)CC[C@]3(C)[C@H](CC[C@@H]4[C@@]5(C)CC=C(c6ccc(C(=O)O)c(Cl)c6)C(C)(C)[C@@H]5CC[C@]43C)[C@@H]12` [Example 5a, 2-chloro-4-((1R,3aS,5aR,5bR,7aR,11aS,11bR,13bR)-3a-(hydroxymethyl)-5a,5b,8,8,11a-pentamethyl-1-(prop-1-en-2-yl)-2,3,3a,4,5,5a,5b,6,7,7a,8,11,11a,11b,12,13,13a,13b-octadecahydro-1H-cyclopenta[a]chrysen-9-yl)benzoic acid], < 1000 nM. Turning to `C=C(C)[C@@H]1CC[C@]2(CO)CC[C@]3(C)[C@H](CC[C@@H]4[C@@]5(C)CC=C(c6ccc(C(=O)O)cc6)C(C)(C)[C@@H]5CC[C@]43C)[C@@H]12` [Example 5b, 4-((1R,3aS,5aR,5bR,7aR,11aS,11bR,13bR)-3a-(hydroxymethyl)-5a,5b,8,8,11a-pentamethyl-1-(prop-1-en-2-yl)-2,3,3a,4,5,5a,5b,6,7,7a,8,11,11a,11b,12,13,13a,13b-octadecahydro-1H-cyclopenta[a]chrysen-9-yl)benzoic acid], the EC50 was < 1000 nM. To `C=C(C)[C@@H]1CC[C@]2(CO)CC[C@]3(C)[C@H](CC[C@@H]4[C@@]5(C)CC=C(c6ccc(C(=O)O)s6)C(C)(C)[C@@H]5CC[C@]43C)[C@@H]12` [Example 5c, 5-((1R,3aS,5aR,5bR,7aR,11aS,11bR,13bR)-3a-(hydroxymethyl)-5a,5b,8,8,11a-pentamethyl-1-(prop-1-en-2-yl)-2,3,3a,4,5,5a,5b,6,7,7a,8,11,11a,11b,12,13,13a,13b-octadecahydro-1H-cyclopenta[a]chrysen-9-yl)thiophene-2-carboxylic acid] belongs 230 nM; to `C=C(C)[C@@H]1CC[C@]2(CO)CC[C@]3(C)[C@H](CC[C@@H]4[C@@]5(C)CC=C(c6csc(C(=O)O)c6)C(C)(C)[C@@H]5CC[C@]43C)[C@@H]12` [Example 5d, 4-((1R,3aS,5aR,5bR,7aR,11aS,11bR,13bR)-3a-(hydroxymethyl)-5a,5b,8,8,11a-pentamethyl-1-(prop-1-en-2-yl)-2,3,3a,4,5,5a,5b,6,7,7a,8,11,11a,11b,12,13,13a,13b-octadecahydro-1H-cyclopenta[a]chrysen-9-yl)thiophene-2-carboxylic acid], < 1000 nM. As to `C=C(C)[C@@H]1CC[C@]2(CO)CC[C@]3(C)[C@H](CC[C@@H]4[C@@]5(C)CC=C(c6ccc(O)nc6)C(C)(C)[C@@H]5CC[C@]43C)[C@@H]12` [Example 5e, 5-((1R,3aS,5aR,5bR,7aR,11aS,13aR,13bR)-3a-(hydroxymethyl)-5a,5b,8,8,11a-pentamethyl-1-(prop-1-en-2-yl)-2,3,3a,4,5,5a,5b,6,7,7a,8,11,11a,11b,12,13,13a,13b-octadecahydro-1H-cyclopenta[a]chrysen-9-yl)pyridin-2-ol], the EC50 was > 1000 nM.

In the case of `C=C(C)[C@@H]1CC[C@]2(CO)CC[C@]3(C)[C@H](CC[C@@H]4[C@@]5(C)CC=C(c6ccc(O)c(F)c6)C(C)(C)[C@@H]5CC[C@]43C)[C@@H]12` [Example 5f, 2-fluoro-4-((1R,3aS,5aR,5bR,7aR,11aS,11bR,13aR,13bR)-3a-(hydroxymethyl)-5a,5b,8,8,11a-pentamethyl-1-(prop-1-en-2-yl)-2,3,3a,4,5,5a,5b,6,7,7a,8,11,11a,11b,12,13,13a,13b-octadecahydro-1H-cyclopenta[a]chrysen-9-yl)phenol], the EC50 is < 1000 nM. As for `C=C(C)[C@@H]1CC[C@]2(CO)CC[C@]3(C)[C@H](CC[C@@H]4[C@@]5(C)CC=C(c6ccc(O)c(Cl)c6)C(C)(C)[C@@H]5CC[C@]43C)[C@@H]12` [Example 5g, 2-chloro-4-((1R,3aS,5aR,5bR,7aR,11aS,11bR,13aR,13bR)-3a-(hydroxymethyl)-5a,5b,8,8,11a-pentamethyl-1-(prop-1-en-2-yl)-2,3,3a,4,5,5a,5b,6,7,7a,8,11,11a,11b,12,13,13a,13b-octadecahydro-1H-cyclopenta[a]chrysen-9-yl)phenol], the figure is > 1000 nM; as for `C=C(C)[C@@H]1CC[C@]2(CO)CC[C@]3(C)[C@H](CC[C@@H]4[C@@]5(C)CC=C(c6ccc(O)cc6C)C(C)(C)[C@@H]5CC[C@]43C)[C@@H]12` [Example 5h, 4-((1R,3aS,5aR,5bR,7aR,11aS,11bR,13aR,13bR)-3a-(hydroxymethyl)-5a,5b,8,8,11a-pentamethyl-1-(prop-1-en-2-yl)-2,3,3a,4,5,5a,5b,6,7,7a,8,11,11a,11b,12,13,13a,13b-octadecahydro-1H-cyclopenta[a]chrysen-9-yl)-3-methylphenol], > 1000 nM; as for `C=C(C)[C@@H]1CC[C@]2(CO)CC[C@]3(C)[C@H](CC[C@@H]4[C@@]5(C)CC=C(c6ccc(NS(C)(=O)=O)cc6)C(C)(C)[C@@H]5CC[C@]43C)[C@@H]12` [Example 5i, N-(4-((1R,3aS,5aR,5bR,7aR,11aS,11bR,13aR,13bR)-3a-(hydroxymethyl)-5a,5b,8,8,11a-pentamethyl-1-(prop-1-en-2-yl)-2,3,3a,4,5,5a,5b,6,7,7a,8,11,11a,11b,12,13,13a,13b-octadecahydro-1H-cyclopenta[a]chrysen-9-yl)phenyl)methanesulfonamide], > 1000 nM.
